This note sets out measurements from patent publication US20130005759A1, “SMALL MOLECULE MODIFIERS OF MICRORNA MIR-122” (North Carolina State University, priority 2010, published 2013).

Data set [1] relates to miR-122. The experiment in a line: psiCHECK-miR122 dual luciferase reporter assay in Huh7 cells. In kind it is cell-based, human. The following applies: for miR-122 inhibitory activity (structure-activity, in words) / miR-122 activation (structure-activity, in words): Huh7, 10 μM; for miR-122 inhibitory activity (structure-activity, in words): relative to parent inhibitor 1 or 2; for miR-122 activation (structure-activity, in words): relative to parent activator 3. From the text:
A miRNA small molecule modifier screen for miR-122 was developed based on the psiCHECK-2 (Promega) reporter plasmid (FIG. 9). This construct expresses both Renilla luciferase as well as firefly luciferase, allowing for the normalization of the signal to account for differential cellular viability and variability in transfection efficiency. The miR-122 target sequence was inserted downstream of the Renilla luciferase gene, between the PmeI and SgfI restriction sites. In another aspect of the invention, plasmids expressing luciferase or another reporter gene such as for example, fluorescent reporters (GFP and variants thereof, DsRed, etc.) or beta-galactosidase can be used to screen for small molecule modifiers of miR-122. The mi-122 target sequence may be upstream or downstream of the reporter gene. Multiple miR-122 target sites can also be inserted into or be present in the plasmid.
The presence of mature miR-122 will lead to a decrease in the Renilla luciferase signal (FIG. 1a). The ability to detect endogenous miR-122 was validated by transfecting the generated psiCHECK-miR122 construct into Huh7 and HeLa cells. After 48 hour incubation, the cells were assayed using a Dual Luciferase Assay Kit (Promega). In another embodiment, the cells can be incubated for about 24-96 hours. The Dual Luciferase Assay Kit provides a means to measure the amount of the luciferases by generating a luminescent signal. Using this assay the luminescence from the firefly luciferase reaction may be quenched while the luminescent reaction of Renilla luciferase can be activated. Other assays and procedures that can determine the amount of the one or more reporter genes or miR-122 expression, activity or function can be used. An example of another assay is Dual-Glo Assay (Promega).
The psiCHECK-miR122 vector was then employed in a small molecule screen in Huh7 cells to discover modifiers of miR-122 function. Other cells that express miR-122 such as HepG2 and Hep3B can be used in addition to or instead of Huh7 cells. An increase in the relative Renilla luciferase signal indicates a miR-122 inhibitor, while a reduction in the luciferase signal indicates a miR-122 activator. A genus of compounds that may have activity as modifiers of miR122 function are the Diversity Set II (1364 compounds) from the NCI Developmental Therapeutics Program was screened using Huh7 cells containing the psiCHECK-miR122 reporter. Cells were exposed to the small molecules and the relative luciferase signal was measured after 48 hours using a Dual Luciferase Assay Kit (Promega). In another embodiment the cells can be exposed to the small molecules for about 24-96 hours. As explained above, other assays and procedures that can determine the amount of the one or more reporter genes or miR-122 expression, activity or function can be used.
The analogs were screened for activity using the previously described miR-122 assay. All cells were treated with 10 μM of a compound and experiments were performed in triplicate to ensure statistical validity. The data was normalized to a 1% DMSO control and is reported in relative luciferase units (RLU). The standard deviation was calculated from three independent assays. Some analogs of miR-122 inhibitor compound 1 are:
Huh7 and HeLa cells were transfected at approximately 60% confluency with either the psiCHECK-Control plasmid (the original psiCHECK-2 plasmid containing no known miRNA binding site) or the psiCHECK-miR122 plasmid (0.5 μg) using X-tremGENE transfection reagent (3:2 reagent/DNA ratio; Roche) in Opti-Mem media (Invitrogen). All transfections were performed in triplicate for statistical analysis. The cells were incubated at 37° C. for 4 hours followed by the replacement of transfection media with standard DMEM growth media. After 48 hours of incubation the media was removed, cells were lysed and assayed with a Dual Luciferase Assay Kit (Promega) using a Wallac VICTOR^3V luminometer with a measurement time of 1 s and a delay time of 2 s. […]

Data set [2] concerns psiCHECK-control vector (no miRNA target sequence). Nature of the data set: psiCHECK-control vector luciferase counter-assay in Huh7 cells. The following applies: Huh7, 10 μM. In kind it is cell-based, human. From the text:
(FIG. 3). […] The relative luciferase units were normalized to the corresponding DMSO signals. […] This confirms that compound 2 and the antagomir have similar effects on the reduction of miR-122 function in Huh7 cells.
Compounds which elicited greater than a 5-fold increase of the relative luciferase units signal compared to the DMSO control were then re-assayed in triplicate to confirm the validity of the hit compound. Upon secondary validation of miR-122 inhibition, identical assays were repeated with the psiCHECK-Control vector to ascertain that the effect is specific to the miR-122 pathway, and not simply affecting the Renilla gene. In order to assess the relative degree of miR-122 inhibition, Huh7 cells were also co-transfected with either the psiCHECK-Control plasmid or the psiCHECK-miR122 plasmid (0.5 μg) and a miR-122 2′-OMe PS antagomir (50 pmol; 5′ […] (SEQ ID NO:4) 3′; IDT DNA)(2) using the X-tremGENE transfection reagent (Roche Applied Science, 4:2 reagent/DNA ratio). The transfection media was replaced with standard DMEM growth media after 4 hours and the cells were incubated for 48 hours prior to analysis with a Dual Luciferase Assay Kit (FIG. 3).

For data set [3], the system named is hepatitis C virus (HCV) genotype 1a H77c RNA. Nature of the data set: HCV replication in Huh7 cells (HCV RNA by quantitative RT PCR). In kind it is cell-based. To be noted: Huh7, 10 μM (antagomir transfected), 48 hours. As for the experimental part:
Aberrantly regulated miR-122 is involved in the development of heptocellular carcinoma (HCC). miR-122 is a cellular component required by hepatitis C virus (HCV) for viral replication. […] Due to the efficient down-regulation of miRNA-122 by the small molecule inhibitors 1 and 2, both compounds were tested for their ability to inhibit HCV replication in Huh7 cells. The pHtat2Neo/QR/KR/FV/SI plasmid (provided by Dr. Stanley Lemon of University of Texas Medical Branch (UTMB)) was used to generate genotype 1a H77c RNA, which was subsequently transfected into Huh7 cells.^16 The cells were then either transfected with a miR-122 antagomir (positive control), or treated with compounds 1 and 2 (10 μM), or DMSO (negative control). After 48 hours, total RNA was isolated and HCV RNA levels were measured by quantitative RT PCR (FIG. 7). In agreement with previous reports, the antagomir reduced HCV RNA levels to 20%.^6 Moreover, the small molecule miR-122 inhibitors 1 and 2 elicited a reduction in viral load to 48% and 47%, respectively.
The pHtat2Neo/QR/KR/FV/SI plasmid (provided by Dr. Stanley Lemon)^16 was linearized using XbaI (10 units, 50 μL reaction; New England Biolabs), followed by transcription with T7 RNA Polymerase (6 h, 37° C.), and purification on Microcon 10 columns. Huh7 cells were then grown to 60% confluency in a 6 well plate and transfected with 1 μg RNA using X-tremGENE transfection reagent (Roche Applied Science, 3:2 reagent/RNA ratio) in Opti-Mem media (Invitrogen). After a 4 hour incubation at 37° C., the transfection media was removed and replaced with standard growth media (2 mL) supplemented with 10 μM of 1 or 2 (1% DMSO final concentration). All experiments were conducted in triplicate for statistical validation. […] Quantitative RT-PCR was then performed as previously described using the general HCV RT-PCR Primers (5′: […] 3′ (SEQ ID NO:7) and 5′ […] 3′) (SEQ ID NO:8) and GADPH primers (5′ […] 3′ (SEQ ID NO:9) and 5′ […] 3′) (SEQ ID NO:10) as a standard control.

In the oligonucleotide strings, read from the 5' end, every base follows the letter of its sugar. An asterisk marks phosphorothioate; unmarked linkages are phosphodiester. Other units and linkages are bracketed, terminal groups are in braces. A string of capitals states the bases alone. m = 2'-O-methyl

`O=C(NCc1ccc2ccccc2c1)c1ccc(Cl)cc1Cl` [1e]: in data set [1], the “miR-122 inhibitory activity (structure-activity, in words)” value (“miR-122 inhibitory activity” for short) is listed as “virtually complete loss of miR-122 inhibitory activity”. Still for that read-out and setting: the same measure for `O=C(NCc1ccc2ccccc2c1)c1ccc(Cl)cc1Cl` [1f]: “virtually complete loss of miR-122 inhibitory activity”; for `O=C(Nc1ccccc1)c1ccc(Cl)cc1Cl` [1g, 2,4-Dichloro-N-phenylbenzamide]: “complete loss of miR-122 inhibitory activity”. As to `Nc1ccc(NC(=O)c2ccc(Cl)cc2Cl)cc1` [1h, N-(4-Aminophenyl)-2,4-dichlorobenzamide], the “miR-122 inhibitory activity” value in data set [1] is reported as “complete loss of miR-122 inhibitory activity”. For the molecule `O=C(Nc1ccc(I)cc1)c1ccc(Cl)cc1Cl` [1i, 2,4-Dichloro-N-(4-iodophenyl)benzamide], the “miR-122 inhibitory activity” value in data set [1] is recorded as “complete loss of miR-122 inhibitory activity”. In the case of `O=C(NCc1ccc2ccccc2c1)c1ccc(Cl)cc1Cl` [1m], the “miR-122 inhibitory activity” value in data set [1] was “substantial loss of activity”. `O=S(=O)(c1ccc2c(c1)CCCN2)N1CCCc2ccccc21` [2b, 6-(3,4-Dihydroquinolin-1(2H)-ylsulfonyl)-1,2,3,4-tetrahydroquinoline]: the “miR-122 inhibitory activity” value in data set [1] was “loss of activity”. Consider `O=S(=O)(Nc1ccccc1)c1ccc2c(c1)CCCN2` [2c, N-Phenyl-1,2,3,4-tetrahydroquinoline-6-sulfonamide], for which, in data set [1], the “miR-122 inhibitory activity” value was “Activity was maintained”. In addition, the “relative luciferase units (RLU) normalized to a DMSO control” value in data set [1] (Huh7, psiCHECK-miR122, 10 μM, mean ± SD of three independent assays) turned out to be 9.9±3.1 RLU.

On to `Nc1ccc(NS(=O)(=O)c2ccc3c(c2)CCCN3)cc1` [2d, N-(4-Aminophenyl)-1,2,3,4-tetrahydroquinoline-6-sulfonamide], for which, in data set [1], the “miR-122 inhibitory activity” value is listed as “lost”.

Regarding `CN(C)CCN1C(=O)c2cccc3cccc(c23)C1=O` [3a, 2-(2-(Dimethylamino)ethyl)-1H-benzo[de]isoquinoline-1,3(2H)-dione], the “miR-122 activation (structure-activity, in words)” value (from here on “miR-122 activation”) in data set [1] is reported as “retention of activity”.

As to `NCCN1C(=O)c2cccc3cc(N)cc(c23)C1=O` [3c, 5-Amino-2-(2-aminoethyl)-1H-benzo[de]isoquinoline-1,3(2H)-dione], the “miR-122 activation” value in data set [1] is reported as “increasing loss of activity”. Turning to `Nc1cc2c3c(cccc3c1)C(=O)N(Cc1ccc3ccccc3c1)C2=O` [3g, 5-amino-2-(naphthalen-2-ylmethyl)-1H-benzo[de] isoquinoline-1,3(2H)-dione], the “miR-122 activation” value in data set [1] is “complete loss of miR-122 activation”. “antagomir: miR-122 2′-OMe PS antagomir, 5′ ACAAACACCAUUGUCACACUCCA 3′ (SEQ ID NO:4), positive control (mA*mC*mA*mA*mA*mC*mA*mC*mC*mA*mU*mU*mG*mU*mC*mA*mC*mA*mC*mU*mC*mC*mA) [reference compound]”: in data set [1] (Huh7, 10 μM (antagomir transfected), normalized to DMSO), the “Renilla luciferase expression with psiCHECK-miR122 (in words)” value is recorded as “significant increase”. Moreover, the “normalized Renilla luciferase signal with psiCHECK-control vector” value in data set [2] is recorded as “no statistically significant alteration”. For the same molecule, the “HCV RNA levels / viral load reduced to” value in data set [3] amounted to 20%.
